In ChEMBL document CHEMBL3272185, “Synthesis and enzymic activity of some novel xanthine oxidase inhibitors. 3-Substituted 5,7-dihydroxypyrazolo(1,5-alpha)pyrimidines” (J Med Chem, 1976):

How the values were obtained:
[1] = molecular target: T1, Xanthine dehydrogenase/oxidase (Bos taurus, UniProt P80457); experiment: Inhibition of bovine milk xanthine oxidase using xanthine as substrate; conditions: read-out: I50
[2] = molecular target: T1, Xanthine dehydrogenase/oxidase; experiment: Non-competitive inhibition of bovine milk xanthine oxidase using hypoxanthine as substrate by Lineweaver-Burk plot analysis
[3] = molecular target: T1, Xanthine dehydrogenase/oxidase; experiment: Inhibition of bovine milk xanthine oxidase using xanthine as substrate assessed as increase of I50 at pH 6.6 to 7.6; conditions: cattle
[4] = molecular target: T1, Xanthine dehydrogenase/oxidase; experiment: Activity at bovine milk xanthine oxidase assessed as reduction of 2,6-dichlorophenol-indophenol; conditions: cattle
[5] = molecular target: T1, Xanthine dehydrogenase/oxidase; experiment: Activity at bovine milk xanthine oxidase assessed as reduction of cytochrome c and phenazine methosulfate; conditions: cattle
[6] = molecular target: T1, Xanthine dehydrogenase/oxidase; experiment: Non-competitive inhibition of bovine milk xanthine oxidase using xanthine as substrate by Lineweaver-Burk plot analysis
[7] = Dissociation constant, pKa of the compound
[8] = molecular target: T1, Xanthine dehydrogenase/oxidase; experiment: Inhibition of bovine milk xanthine oxidase using xanthine as substrate at 10 times I50 preincubated for 20 mins at 25 degC measured after 10 fold dilution relative to control; conditions: cattle
[9] = molecular target: T1, Xanthine dehydrogenase/oxidase; experiment: Inhibition of bovine milk xanthine oxidase using xanthine as substrate assessed as increase of I50 at pH 7.6 to 7.9; conditions: cattle
[10] = molecular target: T1, Xanthine dehydrogenase/oxidase; experiment: Inhibition of bovine milk xanthine oxidase using xanthine as substrate at 10 times I50 preincubated for 1 hr at 4 degC measured after 10 fold dilution relative to control; conditions: cattle
[11] = molecular target: T1, Xanthine dehydrogenase/oxidase; experiment: Mixed-type inhibition of bovine milk xanthine oxidase using hypoxanthine as substrate by Lineweaver-Burk plot analysis
[12] = molecular target: T1, Xanthine dehydrogenase/oxidase; experiment: Mixed-type inhibition of bovine milk xanthine oxidase using xanthine as substrate by Lineweaver-Burk plot analysis
[13] = molecular target: T1, Xanthine dehydrogenase/oxidase; experiment: Inhibition of bovine milk xanthine oxidase using xanthine as substrate assessed as increase of I50 at pH 6.6 to 8.2; conditions: cattle
[14] = molecular target: T1, Xanthine dehydrogenase/oxidase; experiment: Inhibition of bovine milk xanthine oxidase using xanthine as substrate assessed as increase of I50 at pH 8.2 to 8.8; conditions: cattle
[15] = molecular target: T1, Xanthine dehydrogenase/oxidase; experiment: Inhibition of bovine milk xanthine oxidase using xanthine as substrate assessed as increase of I50 at pH 6.6 to 7.5; conditions: cattle

T1 sequence (P80457 whole entry): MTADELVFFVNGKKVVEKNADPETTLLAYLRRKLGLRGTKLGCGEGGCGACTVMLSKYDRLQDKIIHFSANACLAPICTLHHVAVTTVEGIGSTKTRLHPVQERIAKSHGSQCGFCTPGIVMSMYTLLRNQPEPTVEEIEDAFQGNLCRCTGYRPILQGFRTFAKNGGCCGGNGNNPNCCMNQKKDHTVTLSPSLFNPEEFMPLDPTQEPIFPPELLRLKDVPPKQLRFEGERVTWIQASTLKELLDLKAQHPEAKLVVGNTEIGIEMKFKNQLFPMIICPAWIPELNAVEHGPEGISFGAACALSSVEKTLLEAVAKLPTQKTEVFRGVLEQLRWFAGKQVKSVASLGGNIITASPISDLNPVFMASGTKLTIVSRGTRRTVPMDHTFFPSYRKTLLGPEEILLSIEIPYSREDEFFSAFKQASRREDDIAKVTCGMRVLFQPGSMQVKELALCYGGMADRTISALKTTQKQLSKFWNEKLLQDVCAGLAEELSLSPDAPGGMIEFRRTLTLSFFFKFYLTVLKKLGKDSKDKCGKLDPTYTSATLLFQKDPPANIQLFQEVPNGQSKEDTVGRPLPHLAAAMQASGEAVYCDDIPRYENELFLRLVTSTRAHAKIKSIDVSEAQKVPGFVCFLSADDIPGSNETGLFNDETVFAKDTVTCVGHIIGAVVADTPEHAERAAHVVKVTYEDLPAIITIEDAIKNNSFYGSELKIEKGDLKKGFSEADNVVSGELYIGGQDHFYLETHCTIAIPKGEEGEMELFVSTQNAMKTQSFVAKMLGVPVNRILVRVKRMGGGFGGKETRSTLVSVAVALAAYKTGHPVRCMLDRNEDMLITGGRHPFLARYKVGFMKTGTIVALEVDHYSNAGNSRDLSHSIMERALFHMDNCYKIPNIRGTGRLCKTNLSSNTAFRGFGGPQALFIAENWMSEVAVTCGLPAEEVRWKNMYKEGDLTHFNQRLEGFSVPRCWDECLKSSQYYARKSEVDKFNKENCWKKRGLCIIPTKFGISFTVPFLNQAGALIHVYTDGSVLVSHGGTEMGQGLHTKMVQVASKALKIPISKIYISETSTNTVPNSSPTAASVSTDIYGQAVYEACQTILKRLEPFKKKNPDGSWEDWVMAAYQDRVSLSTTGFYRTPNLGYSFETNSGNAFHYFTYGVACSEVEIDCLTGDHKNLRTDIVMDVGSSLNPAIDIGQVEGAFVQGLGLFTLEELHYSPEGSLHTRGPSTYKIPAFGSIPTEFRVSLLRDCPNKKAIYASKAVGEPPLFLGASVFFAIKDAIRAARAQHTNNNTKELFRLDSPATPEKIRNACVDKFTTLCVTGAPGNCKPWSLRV

Structure (SMILES) | IC50 [1] [nM] | Ki [2] [nM] | inhibition (INH) [3] | Activity [4] | Activity [5] | Ki [6] [nM] | pKa [7] | inhibition (INH) [8] [%] | inhibition (INH) [9] | inhibition (INH) [10] [%] | Ki [11] [nM] | Ki [12] [nM] | inhibition (INH) [13] | inhibition (INH) [14] | inhibition (INH) [15]
Oc1cc(O)n2nccc2n1 | 5000 | 4200 | Active | Not Active | Not Active | 5400 | 3.7 | 49 | Active | 47 |  |  |  |  | 
O=[N+]([O-])c1cnn2c(O)cc(O)nc12 | 15000 |  |  | Not Active | Not Active |  |  | 53 |  | 51 | 31000 | 37000 |  |  | 
Oc1cc(O)n2ncc(Br)c2n1 | 1200 | 1200 |  | Not Active | Not Active | 1500 |  | 52 |  | 50 |  |  |  |  | 
Oc1cc(O)n2ncc(Cl)c2n1 | 1400 | 1800 |  | Not Active | Not Active | 2000 |  | 44 |  | 45 |  |  |  |  | 
Oc1cc(O)n2ncc(-c3ccccc3)c2n1 | 38 | 60 |  | Not Active | Not Active | 53 | 3.8 | 49 |  | 47 |  |  | Active | Active | 
Oc1cc(O)n2ncc(-c3cccnc3)c2n1 | 43 | 31 |  | Not Active | Not Active | 26 |  | 53 |  | 50 |  |  |  |  | 
Oc1cc(O)n2ncc(-c3ccc(Br)cc3)c2n1 | 33 |  |  | Not Active | Not Active |  | 3.8 | 53 |  | 52 | 23 | 26 | Active | Active | 
Oc1cc(O)n2ncc(-c3ccc(Cl)cc3)c2n1 | 43 |  |  | Not Active | Not Active |  |  | 50 |  | 53 | 19 | 23 |  |  | 
CC(=O)Nc1ccc(-c2cnn3c(O)cc(O)nc23)cc1 | 89 |  |  | Not Active | Not Active |  |  | 48 |  | 47 | 77 | 85 |  |  | 
Cc1ccc(-c2cnn3c(O)cc(O)nc23)cc1 | 96 |  |  | Not Active | Not Active |  |  | 52 |  | 55 | 24 | 17 |  |  | 
Cc1cccc(-c2cnn3c(O)cc(O)nc23)c1 | 25 |  |  | Not Active | Not Active |  |  | 48 |  | 50 | 19 | 20 |  |  | 
Oc1cc(O)n2ncc(-c3ccc4c(c3)OCO4)c2n1 | 29 |  |  | Not Active | Not Active |  |  | 46 |  | 49 | 18 | 23 |  |  | 
Oc1cc(O)n2ncc(-c3cccc4ccccc34)c2n1 | 25 | 16 |  | Not Active | Not Active | 13 |  | 45 |  | 46 |  |  |  |  | 
Oc1ncnc2[nH]ncc12 [ALLOPURINOL] |  |  |  | Active | Active |  | 9 | 100 |  | 100 |  |  |  |  | Active
O=c1[nH]cnc2nc[nH]c12 [HYPOXANTHINE] |  |  |  |  |  |  | 8.7 |  |  |  |  |  |  |  | 
O=c1[nH]c(=O)c2[nH]cnc2[nH]1 [XANTHINE] |  |  |  | Active | Active |  | 7.6 |  |  |  |  |  |  |  | 
